From US10456405B2, “Nitric oxide-releasing prodrug molecule of substituted quinazolines” (ZHEJIANG HUAHAI PHARMACEUTICAL CO., LTD, priority 2015, dated 2019)
Read-outs that look alike come from different tables or passages of the source.

Experiments:
[1] = Release of HNO (headspace gas chromatography of nitrous oxide); details: for Molar Quantities of N2O/Sample: PBS pH 7.4, 37° C., argon, 90 min
Method: Experiment 2. Experimental study on the tested compounds for releasing HNO HNO rapidly dimerizes and dehydrates to produce nitrous oxide in aqueous solution. In the experiment of detecting HNO, gas chromatographic headspace analysis is generally used to determine the amount of the released nitrous oxide, thereby indirectly detect the level of releasing HNO of the compound.
Experimental procedure: Each of the tested compounds was prepared to 20 mg/mL of mother liquor with DMF. Prior to the start of the experiment, 50 μL of drug mother liquor was placed into a 20 mL headspace sample vial. The tested compound was diluted by adding 5 mL of PBS buffer with pH 7.4. The temperature of the resulting sample was kept at 37° C. under argon gas for 90 min. Then the top gas was extracted for gas chromatographic analysis of nitrous oxide by using Angeli's Salt as a positive compound in the experiment.

ApoA-I mRNA = experiment: Regulation of ApoA-I mRNA in HepG2 cells (real-time PCR); type: cell-based; design: key: Active: When 100 μM of the tested compound allowed ApoA-I mRNA in HepG2 cells to increase more than 15%, then the test compound was known as an ApoA active compound; details: 100 μM, 48 h, relative to DMSO control
Method: Experiment 5. Regulation of the Tested Compounds on ApoA-I mRNA HepG2 cells were cultured for 24 h in a 24-well plate with 400 μl of MEM medium containing 0.5% (v/v) of fetal bovine serum. Then each of the tested compounds (100 μM) and the positive control RVX-208 (100 μM) were added. The cells were cultured for another 48 h. The medium was aspirated out. After washing with 200 μl of PBS, 85 μl of cell lysis solution was added into the cells in each well. The cells were incubated at room temperature for 5 to 10 min to be completely dissolved and detached. The mRNA was extracted from the cells with a kit. The extracted mRNA were used for a real-time fluorescence quantitative PCR detection with RNA Fluorescence (RiboGreen) Quantitation Assay Kit and ApoA-I mRNA Primer-Probe Mixture from the company of Applied Biosystems.
After obtaining the Ct values, the induction fold of each test compound relative to DMSO control was calculated. The induction fold was used to reflect the ability of regulating ApoA-I mRNA for the tested compounds. When 100 μM of the tested compound allowed ApoA-I mRNA in HepG2 cells to increase more than 15%, then the test compound was known as an ApoA active compound.

[2] = Plasma stability in vitro, mouse plasma; details: CD-1 mice plasma, 2 μM, 37° C., in % (unit assumed)
Method: (§1) Experimental method: The tested compounds (2 μM) were added into mouse or human plasma, and incubated at 37° C. Samples were taken at 0, 10, 30, 60 and 120 min respectively. The reaction was stopped by adding a stop agent. The mixture was sufficient shaken, and centrifuged at 4000 rpm for 10 min at 4° C. The supernatant was taken. The concentrations of the tested compounds and their metabolite (H130) in the supernatant were measured by LC-MS/MS.

[3] = Plasma stability in vitro, human plasma; details: for Content of Tested Substance (n = 2): human plasma, 2 μM, 37° C., in % (unit assumed); for stability in human plasma: within 2 h
Method: as §1

[4] = Release of nitric oxide in vitro (Griess reagent, nitrite); details: 10^−4 mol/L tested substance, phosphate buffer pH 7.4, cysteine 5 mmol/L, 37° C., 1 h; as nitrite
Method: Experiment 1. Experimental Study on the Tested Compounds for Releasing Nitric Oxide in vitro
Experimental Procedure: • (1) Preparation of Griess Reagent: 4 g of aminobenzenesulfonamide, 0.2 g of N-naphthyl ethylene diamine hydrochloride, and 10 mL of 85% phosphoric acid solution were taken to form a solution, which is diluted to 100 mL with distilled water. • (2) Plotting of the standard curve: a serie of standard solution of 0.01, 0.03, 0.05, 0.07, 0.09, 0.2, 0.4 μg/mL of nitrite nitrogen was prepared, 10 mL of each was taken to sufficiently mix with 2.5 mL of Griess reagent, standing at room temperature for 10 min, and its absorbance value at the wavelength of 540 nm was measured. The standard curve was plotted based on the resulting data. • (3) Measuring the amount of the released NO of the tested drug: all of the tested substances were dissolved in dimethylsulfoxide (1 mL) firstly. Then phosphate buffer (pH 7.4) was slowly added dropwise, and shaken. The drug solution was diluted to 50 mL, allowing the buffer solution to contain excess cysteine (5 mmol/L), and the final concentration of the tested substances being 10^−4 mol/L; the solution was incubated at 37° C. 2 mL of the reaction solution was taken to mix with 500 μl of Griess reagent at 1 h respectively, standing at room temperature for 10 min. The absorbance value of the mixture at 540 nm was measured. Isosorbide mononitrate was used as a positive control, and H130 was used as a negative control. The amount of the released NO was represented by the amount of its oxidation product, nitrite (NO2^−).

[5] = rat, in vivo
Method: Experimental method: Intravenous injection solutions (the administration concentrations of the tested compounds were 1 mg/kg) and oral gastric perfusates (the administration concentrations of the test compounds were 5 mg/kg) of the test compounds were prepared, and intravenously and orally administered to three SD rats, respectively. The concentrations of the whole blood for H130 at 0.083 h, 0.25 h, 0.5 h, 1 h, 2 h, 4 h, 8 h, and 24 h after administration were determined by LC-MS/MS, respectively. The pharmacokinetic parameters were compared by a drug-time curve. Sample pretreatment: 150 μL of the whole blood to be tested was aspirated accurately. 600 μL of internal standard solution (diluted to 0.5 μg/mL with methanol) was added, sufficiently mixed by a vortex mixer, and centrifuged at 13000 r/min for 20 min at 4° C. 3 μL of the supernatant was taken into a sample vial.
Chromatographic conditions: C18 reversed-phase chromatographic column; gradient elution with mobile phase A: water/acetonitrile (v:v=95:5) with 0.025% of formic acid and 1 mM of ammonium acetate added thereto, and mobile phase B: acetonitrile/water (v:v=95:5) with 0.025% of formic acid and 1 mM of ammonium acetate added thereto.

apoE−/− mice = experiment: apoE−/− mouse atherosclerosis model, high-fat diet 10 weeks; type: in vivo
Excerpt: Experimental method: 36 eight-week-old male apoE-/- mice were selected and randomly divided into a blank administration group, an […] administration group, an […] administration group, an […] administration group, an […] administration group, and an […] administration group, 6 mice per group. The mice in each group were fed with high-fat diet for 10 weeks. At the beginning of the high-fat feeding, the mice in each group were administrated. Each tested compound was intragastric administered at the dose of 150 mg/kg twice a day. The blank administration group was given corresponding dose of saline. […] After the blood was taken, the serum, heart, and aorta were isolated. The levels of total cholesterol (TC), high density lipoprotein cholesterol (HDL-C), and low density lipoprotein cholesterol (LDL-C) in the serum of the mice in each group were measured by automatic biochemical analyzer. The ApoA1 expression level was detected with an ApoA1 kit. The content of NO in the serum of the mice was determined with a total NO test kit (Beyotime). The NOS activities of the heart, aorta, and serum were determined with an NOS test kit (Beyotime). The content of eNOS was calculated by the difference between the measured values determined before and after adding eNOS inhibitor L-NAME (Beyotime).

db/db mice = experiment: Serum NO and heart eNOS in db/db mice after oral gavage; type: in vivo; details: blank = 100, oral gavage 150 mg/kg (isosorbide mononitrate 5 mg/kg), 1 h after administration (H101: 2 h)
Excerpt: Experimental method: 25 eight-week-old db/db mice (strain: BKS.Cg−+Leprdb/+leprdb/JclSlac; grade: SPF; gender: male; source: Shanghai SLAC Laboratory Animal Co., Ltd.) were selected. 3 of them were selected as the blank administration control. 2 mice were used as the positive drug control (isosorbide mononitrate). The remaining 20 mice were randomly divided into 5 groups, 4 mice per group, which are H101 administration group, H111 administration group, H116 administration group, H119 administration group, and H130 administration group. The tested compounds of the positive drug control group and each administration group were dissolved in DMSO. Then PEG400 was added. The mixture was shaken and mixed thoroughly. At last, 10% of HP-β-CD was added. The mixture was shaken and mixed thoroughly. The ratio of each solvent was DMSO: PEG400:10% of HP-β-CD=5:67.5:27.5. The administration group was administered by oral gavage at the dose of 150 mg/kg. The positive drug control group was administered at the dose of 5 mg/kg. The mice in the H101 administration group were sacrificed at 2 h after the administration. The mice in the remaining administration groups were sacrificed at 1 h after the administration. The blood was collected respectively into 1.5 mL centrifuge tube, standing at room temperature for more than 30 min, and then centrifuged (3000 rpm, 10 min). The supernatant serum was aspirated, and stored at −80° C. for testing. After the blood was collected, the heart was cut with the thoracic aorta. Three parts of the heart were weighed and placed into cryovials, rapidly frozen in liquid nitrogen, and cryopreserved at −80° C. for testing. The aorta and aortic arch were weighed, rapidly frozen in liquid nitrogen, and cryopreserved at −80° C. for testing. The content of NO in the serum of the […] mice was determined by a total NO test kit (Beyotime). The content of NOS in the heart of the mice was determined with an NOS test kit (Beyotime). The content of eNOS was calculated by the difference between the measured values before and after adding the eNOS inhibitor L-NAME (Beyotime).

[6] = blank administration group = 100, 150 mg/kg twice a day, 10 weeks
[7] = serum, high-fat diet 10 weeks, intragastric 150 mg/kg twice a day

| SMILES | Molar Quantities of N2O/Sample [1] [%] | Upregulation of Apoa-I Mrna Level (ApoA-I mRNA) | Content of Tested Substance (n = 2) ([2]; 0 min) | Content of Tested Substance (n = 2) ([2]; 10 min) | Content of Tested Substance (n = 2) ([2]; 30 min) | Content of Tested Substance (n = 2) ([2]; 60 min) | Content of Tested Substance (n = 2) ([2]; 120 min) | Content of Tested Substance (n = 2) ([3]; 0 min) | Content of Tested Substance (n = 2) ([3]; 10 min) | Content of Tested Substance (n = 2) ([3]; 30 min) | Content of Tested Substance (n = 2) ([3]; 60 min) | Content of Tested Substance (n = 2) ([3]; 120 min) | stability in human plasma [3] | Amount of Released No [4] [µM] | further results |
| --- | --- | --- | --- | --- | --- | --- | --- | --- | --- | --- | --- | --- | --- | --- | --- |
| COc1cc(OC)c2c(=O)[nH]c(-c3cc(C)c(OCCOC(=O)ONS(=O)(=O)c4ccc(C)o4)c(C)c3)nc2c1 [Compound H104, N-((2-(4-(5,7-dimethoxy-4-oxo-3,4-dihydroquinazolin-2-yl)-2,6-dimethylphenoxy)ethoxy)carbonyloxy)-5-methylfuran-2-sulfonamide] | 23.6 | Active | 100.0 | 0.5 | 0.0 | 0.0 | 0.3 | 100.0 | 99.5 | 88.7 | 81.1 | 75.8 | good stability |  |  |
| COc1cc(OC)c2c(=O)[nH]c(-c3cc(C)c(OCCOC(=O)CCC(=O)OCC(CO[N+](=O)[O-])(CO[N+](=O)[O-])CO[N+](=O)[O-])c(C)c3)nc2c1 [Compound H106, 2-[4-(5,7-dimethoxy-4-oxo-3,4-dihydro-quinazolin-2-yl)-2,6-dimethyl-phenoxy]-ethyl 3-(nitroxy)-2,2-di((nitroxy)methyl) propyl succinate] |  | Active |  |  |  |  |  |  |  |  |  |  |  | 2.56 |  |
| COc1cc(OC)c2c(=O)[nH]c(-c3cc(C)c(OCCOC(=O)CCC(CO[N+](=O)[O-])O[N+](=O)[O-])c(C)c3)nc2c1 (stereo not drawn) [Compound H108, 2-[4-(5,7-dimethoxy-4-oxo-3,4-dihydro-quinazolin-2-yl)-2,6-dimethyl-phenoxy]-ethyl 4,5-dinitroxy-pentanoate] |  | Active | 100.0 | 0.5 | 0.3 | 1.7 | 0.3 | 100.0 | 101.5 | 95.5 | 93.8 | 85.3 | good stability | 0.33 |  |
| COc1cc(OC)c2c(=O)[nH]c(-c3cc(C)c(OCCOC(=O)CNC(=O)CCCO[N+](=O)[O-])c(C)c3)nc2c1 [Compound H109, 2-[4-(5,7-dimethoxy-4-oxo-3,4-dihydro-quinazolin-2-yl)-2,6-dimethyl-phenoxy]-ethyl (4-nitroxy-butyrylamido)-acetate] |  | Active |  |  |  |  |  |  |  |  |  |  |  | 1.49 |  |
| COc1cc(OC)c2c(=O)[nH]c(-c3cc(C)c(OCCOC(=O)CC(N)C(=O)OCC(CO[N+](=O)[O-])O[N+](=O)[O-])c(C)c3)nc2c1.Cl (stereo not drawn) [Compound H118, 1-(2,3-dinitroxy-propyl) 4-{2-[4-(5,7-dimethoxy-4-oxo-3,4-dihydro-quinazolin-2-yl)-2,6-dimethyl-phenoxy]-ethyl}2-amino-succinate hydrochloride] |  | Active |  |  |  |  |  |  |  |  |  |  |  | 1.74 | release of prototype compound H130 after administration [5]: can be rapidly released; AUCRatio (Dosage Calibration) ([5]; iv, 1 mg/kg): 19.2%; AUCRatio (Dosage Calibration) ([5]; po, 5 mg/kg): 14.1% |
| COc1cc(OC)c2c(=O)[nH]c(-c3cc(C)c(OCCO)c(C)c3)nc2c1 [Compound H130, 2-(4-(2-hydroxyethoxy)-3,5-dimethylphenyl)-5,7-dimethoxyquinazoline-4(3H)-one, reference compound] | −0.15 |  |  |  |  |  |  |  |  |  |  |  |  | -1.03 | HNO release detected ([1]; within 1.5 h): no HNO release can be detected; Aorta eNOS (apoE−/− mice; [6]): 105%; ApoA1 (apoE−/− mice; [6]): 130%; Heart eNOS (apoE−/− mice; [6]): 115%; Serum NO (apoE−/− mice; [6]): 108%; Serum eNOS (apoE−/− mice; [6]): 107%; HDL-C (apoE−/− mice; [7]): 86 ± 13 mg/dL; LDL-C (apoE−/− mice; [7]): 273 ± 33 mg/dL; TC (apoE−/− mice; [7]): 1005 ± 44 mg/dL; Heart eNOS (db/db mice): 123%; Serum NO (db/db mice): 111% |
